ChEMBL document CHEMBL4251601 (Eur J Med Chem, 2018)
Calls of active or inactive are those of the source. The calls are words filed in the database; no cut-off is given here.

Assays:
[1] = target: RAC-gamma serine/threonine-protein kinase (Homo sapiens) (UniProt Q9Y243); assay: Inhibition of recombinant full length human His-tagged AKT3 expressed in baculovirus expression system at 1 uM by TR-FRET assay relative to control
[2] = target: Mitogen-activated protein kinase 1 (Homo sapiens) (UniProt P28482); assay: Inhibition of recombinant human full length GST-tagged ERK2 expressed in Escherichia coli at 1 uM by Z'-Lyte assay relative to control
[3] = target: Serine/threonine-protein kinase 10 (Homo sapiens) (UniProt O94804); assay: Inhibition of LOK1 (unknown origin) at 0.1 uM by Z'-Lyte assay relative to control
[4] = target: G protein-coupled receptor kinase 6 (Homo sapiens) (UniProt P43250); assay: Inhibition of recombinant human full length GST-tagged GRK6 expressed in baculovirus expression system at 1 uM by Z'-Lyte assay relative to control
[5] = target: G protein-coupled receptor kinase 3 (Homo sapiens) (UniProt P35626); assay: Inhibition of recombinant human full length GST-tagged GRK3 expressed in baculovirus expression system at 1 uM by Z'-Lyte assay relative to control
[6] = target: Phosphatidylinositol 4,5-bisphosphate 3-kinase catalytic subunit delta isoform (Homo sapiens) (UniProt O00329); assay: Inhibition of PI3K delta (unknown origin) at 0.1 uM by ADP-Glo assay relative to control
[7] = target: Serine/threonine-protein kinase MRCK beta (Homo sapiens) (UniProt Q9Y5S2); assay: Inhibition of recombinant human His-tagged CDC42 BPB expressed in baculovirus expression system at 0.1 uM by Z'-Lyte assay relative to control
[8] = tested on: Mitogen-activated protein kinase kinase kinase 7; assay: Inhibition of TAK1 (unknown origin) at 1 uM by TR-FRET assay relative to control; conditions: Homo sapiens
[9] = target: G protein-coupled receptor kinase 4 (Homo sapiens) (UniProt P32298); assay: Inhibition of recombinant human full length GST-tagged GRK4 expressed in baculovirus expression system at 1 uM by Z'-Lyte assay relative to control
[10] = target: Tyrosine-protein kinase receptor TYRO3 (Homo sapiens) (UniProt Q06418); assay: Inhibition of recombinant human GST-tagged TYRO3 cytoplasmic domain (451 to 890 residues) expressed in baculovirus expression system at 0.1 uM by Z'-Lyte assay relative to control
[11] = target: Protein-tyrosine kinase 6 (Homo sapiens) (UniProt Q13882); assay: Inhibition of recombinant human full length His-tagged PTK6 expressed in baculovirus expression system at 0.1 uM by TR-FRET assay relative to control
[12] = target: Tyrosine-protein kinase JAK2 (Homo sapiens) (UniProt O60674); assay: Inhibition of recombinant human GST-tagged JAK2 expressed in baculovirus expression system at 0.1 uM by TR-FRET assay relative to control
[13] = target: Tyrosine-protein kinase JAK3 (Homo sapiens) (UniProt P52333); assay: Inhibition of recombinant human GST-tagged JAK3 expressed in baculovirus expression system at 0.1 uM by TR-FRET assay relative to control
[14] = AUC (0 to infinity) in Sprague-Dawley rat at 2 mg/kg, iv administered as single dose by LC-MS/MS analysis; format: ADME, organism-based; design: dose 2 mg/kg, route intravenous, time infinity; conditions: Sprague-Dawley, in vivo
[15] = target: Serine/threonine-protein kinase Chk2 (Homo sapiens) (UniProt O96017); assay: Inhibition of recombinant full length human His-tagged CHEK2 expressed in baculovirus expression system at 0.1 uM by Z'-Lyte assay relative to control
[16] = target: Hepatocyte growth factor receptor (Homo sapiens) (UniProt P08581); assay: Inhibition of recombinant human His-tagged c-Met cytoplasmic domain expressed in baculovirus expression system at 0.1 uM by Z'-Lyte assay relative to control
[17] = target: Tyrosine-protein kinase Srms (Homo sapiens) (UniProt Q9H3Y6); assay: Inhibition of recombinant human full length GST-tagged SRMS expressed in baculovirus expression system at 1 uM by TR-FRET assay relative to control
[18] = target: Serine/threonine-protein kinase Chk2 (Homo sapiens) (UniProt O96017); assay: Inhibition of recombinant full length human His-tagged CHEK2 expressed in baculovirus expression system at 1 uM by Z'-Lyte assay relative to control
[19] = target: Receptor tyrosine-protein kinase erbB-2 (Homo sapiens) (UniProt P04626); assay: Inhibition of recombinant human His-tagged ERBB2 cytoplasmic domain expressed in baculovirus expression system at 1 uM by Z'-Lyte assay relative to control
[20] = target: ALK tyrosine kinase receptor (Homo sapiens) (UniProt Q9UM73); assay: Inhibition of recombinant N-terminal GST-tagged human ALK cytoplasmic domain (1058 to 1620 residues) expressed in baculovirus expression system at 1 uM by TR-FRET assay relative to control
[21] = target: Phosphatidylinositol 4,5-bisphosphate 3-kinase catalytic subunit delta isoform (Homo sapiens) (UniProt O00329); assay: Inhibition of PI3K delta (unknown origin) at 1 uM by ADP-Glo assay relative to control
[22] = target: Phosphatidylinositol 4,5-bisphosphate 3-kinase catalytic subunit beta isoform (Homo sapiens) (UniProt P42338); assay: Inhibition of PI3K beta (unknown origin) at 0.1 uM by ADP-Glo assay relative to control
[23] = target: High affinity nerve growth factor receptor (Homo sapiens) (UniProt P04629); assay: Inhibition of recombinant human His-tagged TRKA cytoplasmic domain expressed in baculovirus expression system at 0.1 uM by Z'-Lyte assay relative to control
Mus musculus = assay: In vivo inhibition of CDK4/6 in nude mouse xenografted with human COLO205 cells assessed as reduction in Ser-780-phosphorylated Rb level in tumor at 100 mg/kg administered via oral gavage measured after 24 to 48 hrs by Western blot analysis; format: functional, organism-based
[24] = tested on: ALK tyrosine kinase receptor (Homo sapiens), Q9UM73 [L1196M]; assay: Inhibition of recombinant N-terminal GST-tagged human ALK cytoplasmic domain (1058 to 1620 residues) L1196M mutant expressed in baculovirus expression system at 1 uM by TR-FRET assay relative to control
[25] = target: Serine/threonine-protein kinase PAK 4 (Homo sapiens) (UniProt O96013); assay: Inhibition of recombinant human GST-tagged PAK4 expressed in baculovirus expression system at 0.1 uM by Z'-Lyte assay relative to control
U-87 MG = assay: Antitumor activity against luciferase-fused human U87MG cells orthotopically xenografted in nude mouse assessed as increase in mouse life span at 25 mg/kg, po qd for 5 weeks relative to control; format: functional, U-87MG ATCC; conditions: 840 h
[26] = target: Calcium/calmodulin-dependent protein kinase type II subunit beta (Homo sapiens) (UniProt Q13554); assay: Inhibition of recombinant full length human His-tagged CAMK2B expressed in baculovirus expression system at 0.1 uM by Z'-Lyte assay relative to control
[27] = target: Tyrosine-protein kinase BTK (Homo sapiens) (UniProt Q06187); assay: Inhibition of recombinant full length human His-tagged BTK expressed in baculovirus expression system at 0.1 uM by TR-FRET assay relative to control
[28] = target: Dual specificity protein kinase CLK1 (Homo sapiens) (UniProt P49759); assay: Inhibition of recombinant human GST-tagged CLK1 expressed in Escherichia coli at 1 uM by Z'-Lyte assay relative to control

Sequence of Serine/threonine-protein kinase Chk2 (Homo sapiens) (O96017 whole entry, the tested form may be a part): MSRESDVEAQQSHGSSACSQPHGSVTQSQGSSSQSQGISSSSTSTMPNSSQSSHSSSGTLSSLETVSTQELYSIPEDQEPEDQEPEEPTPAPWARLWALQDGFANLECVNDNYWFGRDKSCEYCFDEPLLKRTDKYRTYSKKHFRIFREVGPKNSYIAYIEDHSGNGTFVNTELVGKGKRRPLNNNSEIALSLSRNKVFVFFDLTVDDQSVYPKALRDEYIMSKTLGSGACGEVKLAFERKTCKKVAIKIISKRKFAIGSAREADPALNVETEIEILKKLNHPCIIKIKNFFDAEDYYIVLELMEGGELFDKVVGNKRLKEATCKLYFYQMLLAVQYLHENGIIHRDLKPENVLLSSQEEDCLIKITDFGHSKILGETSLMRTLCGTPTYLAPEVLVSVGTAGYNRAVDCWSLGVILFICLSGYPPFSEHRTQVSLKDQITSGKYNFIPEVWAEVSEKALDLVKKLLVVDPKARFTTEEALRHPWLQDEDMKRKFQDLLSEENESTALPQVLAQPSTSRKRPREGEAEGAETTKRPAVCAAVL
Sequence of Phosphatidylinositol 4,5-bisphosphate 3-kinase catalytic subunit delta isoform (Homo sapiens) (O00329 whole entry, canonical isoform): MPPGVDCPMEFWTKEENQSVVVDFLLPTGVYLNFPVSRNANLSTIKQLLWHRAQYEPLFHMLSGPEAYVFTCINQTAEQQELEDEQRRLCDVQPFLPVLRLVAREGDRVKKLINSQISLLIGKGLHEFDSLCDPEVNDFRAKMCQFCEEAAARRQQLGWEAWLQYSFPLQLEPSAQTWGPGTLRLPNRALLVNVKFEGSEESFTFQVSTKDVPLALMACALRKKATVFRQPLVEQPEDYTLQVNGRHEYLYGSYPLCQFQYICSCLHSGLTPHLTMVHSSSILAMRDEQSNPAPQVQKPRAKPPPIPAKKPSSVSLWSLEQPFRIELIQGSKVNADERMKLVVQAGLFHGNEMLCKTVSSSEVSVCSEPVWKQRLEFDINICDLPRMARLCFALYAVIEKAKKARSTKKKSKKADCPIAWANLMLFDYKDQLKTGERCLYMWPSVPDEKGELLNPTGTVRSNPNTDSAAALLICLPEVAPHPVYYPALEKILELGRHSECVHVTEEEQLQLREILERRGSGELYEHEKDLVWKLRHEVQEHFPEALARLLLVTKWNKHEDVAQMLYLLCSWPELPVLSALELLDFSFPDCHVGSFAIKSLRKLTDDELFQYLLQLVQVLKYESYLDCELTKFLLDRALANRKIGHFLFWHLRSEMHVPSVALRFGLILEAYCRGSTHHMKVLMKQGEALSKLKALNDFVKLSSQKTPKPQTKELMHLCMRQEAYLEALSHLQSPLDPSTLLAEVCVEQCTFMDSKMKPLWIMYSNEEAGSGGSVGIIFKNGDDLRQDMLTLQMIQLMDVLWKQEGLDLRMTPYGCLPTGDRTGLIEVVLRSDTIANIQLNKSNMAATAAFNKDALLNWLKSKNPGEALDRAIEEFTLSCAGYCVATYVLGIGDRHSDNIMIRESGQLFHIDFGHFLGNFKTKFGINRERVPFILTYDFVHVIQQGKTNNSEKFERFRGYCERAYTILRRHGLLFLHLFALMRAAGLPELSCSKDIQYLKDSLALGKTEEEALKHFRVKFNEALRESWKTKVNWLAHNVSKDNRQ
Sequence of G protein-coupled receptor kinase 6 (Homo sapiens) (P43250 whole entry, looked up): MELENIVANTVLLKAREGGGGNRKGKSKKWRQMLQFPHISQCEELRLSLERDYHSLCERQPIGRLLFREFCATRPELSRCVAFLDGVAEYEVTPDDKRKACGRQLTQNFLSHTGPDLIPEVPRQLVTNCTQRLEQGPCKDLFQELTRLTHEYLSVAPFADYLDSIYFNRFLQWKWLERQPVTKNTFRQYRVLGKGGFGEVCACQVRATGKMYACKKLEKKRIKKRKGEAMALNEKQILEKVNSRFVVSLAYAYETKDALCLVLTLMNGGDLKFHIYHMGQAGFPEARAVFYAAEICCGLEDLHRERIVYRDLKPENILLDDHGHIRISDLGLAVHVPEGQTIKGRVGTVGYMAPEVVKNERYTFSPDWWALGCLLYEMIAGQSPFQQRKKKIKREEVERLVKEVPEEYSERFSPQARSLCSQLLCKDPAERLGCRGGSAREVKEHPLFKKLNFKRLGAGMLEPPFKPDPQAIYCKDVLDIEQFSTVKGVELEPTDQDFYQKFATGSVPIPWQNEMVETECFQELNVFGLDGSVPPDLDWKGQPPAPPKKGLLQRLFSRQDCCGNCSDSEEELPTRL
Sequence of Mitogen-activated protein kinase 1 (Homo sapiens) (P28482 whole entry): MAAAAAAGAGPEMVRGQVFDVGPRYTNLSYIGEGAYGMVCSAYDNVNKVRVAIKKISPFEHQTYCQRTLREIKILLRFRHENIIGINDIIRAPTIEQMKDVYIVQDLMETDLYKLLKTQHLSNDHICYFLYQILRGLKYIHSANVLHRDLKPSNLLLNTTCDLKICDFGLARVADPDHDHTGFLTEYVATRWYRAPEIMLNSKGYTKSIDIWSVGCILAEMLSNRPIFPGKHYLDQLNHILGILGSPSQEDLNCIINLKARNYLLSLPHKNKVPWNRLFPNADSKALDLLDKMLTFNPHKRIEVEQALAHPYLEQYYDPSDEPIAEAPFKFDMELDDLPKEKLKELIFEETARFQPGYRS
Sequence of G protein-coupled receptor kinase 4 (Homo sapiens) (P32298 whole entry, looked up, the tested form may be a part): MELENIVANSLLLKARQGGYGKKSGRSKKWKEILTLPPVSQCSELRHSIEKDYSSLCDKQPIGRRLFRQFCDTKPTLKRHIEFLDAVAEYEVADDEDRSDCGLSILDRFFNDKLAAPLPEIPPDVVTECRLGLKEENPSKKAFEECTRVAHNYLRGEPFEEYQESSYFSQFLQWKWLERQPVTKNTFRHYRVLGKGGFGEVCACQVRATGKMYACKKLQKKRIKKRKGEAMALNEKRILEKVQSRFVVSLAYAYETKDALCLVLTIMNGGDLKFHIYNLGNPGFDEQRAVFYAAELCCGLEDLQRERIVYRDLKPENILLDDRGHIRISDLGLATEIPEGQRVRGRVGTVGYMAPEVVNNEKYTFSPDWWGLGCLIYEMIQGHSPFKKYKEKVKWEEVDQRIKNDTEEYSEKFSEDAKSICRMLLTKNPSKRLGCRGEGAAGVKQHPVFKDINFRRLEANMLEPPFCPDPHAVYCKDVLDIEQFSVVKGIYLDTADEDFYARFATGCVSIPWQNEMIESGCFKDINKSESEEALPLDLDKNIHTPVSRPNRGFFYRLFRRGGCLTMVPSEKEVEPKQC
Sequence of Protein-tyrosine kinase 6 (Homo sapiens) (Q13882 whole entry, looked up): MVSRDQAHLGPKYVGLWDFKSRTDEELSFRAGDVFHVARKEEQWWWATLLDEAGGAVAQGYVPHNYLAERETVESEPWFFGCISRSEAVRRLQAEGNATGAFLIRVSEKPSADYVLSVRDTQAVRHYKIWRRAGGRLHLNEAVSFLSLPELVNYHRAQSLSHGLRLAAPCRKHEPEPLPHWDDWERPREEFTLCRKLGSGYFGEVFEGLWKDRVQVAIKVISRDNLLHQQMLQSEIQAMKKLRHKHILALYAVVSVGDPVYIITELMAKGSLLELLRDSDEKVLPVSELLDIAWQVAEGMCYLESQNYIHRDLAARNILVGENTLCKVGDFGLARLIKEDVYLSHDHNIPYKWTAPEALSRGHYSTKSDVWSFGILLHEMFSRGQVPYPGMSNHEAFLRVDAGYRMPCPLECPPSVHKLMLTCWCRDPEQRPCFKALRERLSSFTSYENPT
Sequence of G protein-coupled receptor kinase 3 (Homo sapiens) (P35626 whole entry, canonical isoform): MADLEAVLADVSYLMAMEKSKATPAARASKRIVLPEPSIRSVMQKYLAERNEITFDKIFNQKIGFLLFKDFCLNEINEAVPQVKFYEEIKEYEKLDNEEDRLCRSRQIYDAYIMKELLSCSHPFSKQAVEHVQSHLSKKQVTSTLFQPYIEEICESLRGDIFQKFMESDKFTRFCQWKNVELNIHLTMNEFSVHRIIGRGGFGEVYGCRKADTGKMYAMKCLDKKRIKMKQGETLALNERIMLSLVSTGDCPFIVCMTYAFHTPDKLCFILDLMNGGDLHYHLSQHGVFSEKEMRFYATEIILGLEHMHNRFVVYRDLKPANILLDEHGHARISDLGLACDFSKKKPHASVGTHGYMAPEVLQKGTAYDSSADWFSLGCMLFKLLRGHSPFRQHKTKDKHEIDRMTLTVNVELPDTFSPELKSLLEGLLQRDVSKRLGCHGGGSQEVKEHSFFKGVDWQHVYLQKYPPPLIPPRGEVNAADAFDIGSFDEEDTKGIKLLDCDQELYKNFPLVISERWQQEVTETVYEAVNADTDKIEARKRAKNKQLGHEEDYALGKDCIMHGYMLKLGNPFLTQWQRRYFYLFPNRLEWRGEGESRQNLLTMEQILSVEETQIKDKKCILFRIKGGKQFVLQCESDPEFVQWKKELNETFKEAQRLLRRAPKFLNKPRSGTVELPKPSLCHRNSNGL
Sequence of RAC-gamma serine/threonine-protein kinase (Homo sapiens) (Q9Y243 whole entry): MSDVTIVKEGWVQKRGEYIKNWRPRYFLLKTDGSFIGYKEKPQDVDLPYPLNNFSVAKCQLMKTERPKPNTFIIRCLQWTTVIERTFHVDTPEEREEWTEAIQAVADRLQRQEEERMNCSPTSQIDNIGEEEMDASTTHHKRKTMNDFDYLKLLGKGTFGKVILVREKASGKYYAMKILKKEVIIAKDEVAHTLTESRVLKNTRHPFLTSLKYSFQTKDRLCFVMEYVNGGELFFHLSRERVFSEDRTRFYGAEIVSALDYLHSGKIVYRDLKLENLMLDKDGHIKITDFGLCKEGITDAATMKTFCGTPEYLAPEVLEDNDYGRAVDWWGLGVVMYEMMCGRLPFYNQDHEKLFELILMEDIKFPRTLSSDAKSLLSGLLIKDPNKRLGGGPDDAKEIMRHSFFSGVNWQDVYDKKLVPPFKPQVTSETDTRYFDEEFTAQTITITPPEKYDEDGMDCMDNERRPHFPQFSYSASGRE

CC1=Nc2c(F)cc(-c3nc(Nc4ccc(C5CCN(C)CC5)cn4)ncc3F)cc2C12CCCC2 [CROZBACICLIB]
inhibition [1]: 25%
inhibition [2]: 5%
inhibition [3]: 11%
inhibition [4]: 4%
inhibition [5]: -7%
inhibition [6]: 2%
inhibition [7]: 15%
inhibition [8]: 17%
inhibition [9]: 1%
inhibition [10]: 0%
inhibition [11]: 14%
inhibition [12]: 24%
inhibition [13]: 56%
AUC(0-inf) [14]: 959 ng·h/mL
inhibition [15]: -2%
inhibition [16]: 12%
inhibition [17]: 6%
inhibition [18]: 6%
inhibition [19]: 3%
inhibition [20]: 89%
inhibition [21]: 14%
inhibition [22]: 0%
inhibition [23]: 2%
inhibition (Mus musculus): Active
inhibition [24]: 34%
inhibition [25]: 4%
ILS at 25 mg/kg (U-87 MG): 103%
inhibition [26]: 25%
inhibition [27]: -9%
inhibition [28]: 99%
